# Measurements from US20250319069A1, “METHODS FOR TREATING DEPRESSIVE STATES” (BioXcel Therapeutics, Inc., priority 2021, published 2025).
# Columns and labels:
# [1] = tested on: Yohimbine challenged rats; assay: Elevated plus maze test in Yohimbine challenged rats (Example 2); assay type: in vivo, male Wistar rats; details: for In the open arms: Percentage change compared to Yohimbine administered group, Number of entries / In the open arms: Percentage change compared to Yohimbine administered group, Time spent: YOH 2.5 mg/kg; for Number of entries in the open arms (Mean ± SEM) / Time spent in the open arms (Mean ± SEM): rats given YOH 2.5 mg/kg i.p., N=12
# Experimental: Treatment with Test Compounds: • As outlined in the table • Vehicle is Saline
# After compound administration, the rat was placed on the platform opposite a closed arm. The number of entries and the time spent in each arm were recorded during a 5 min period (deliverables). The animal was considered as entered in arm when it placed its four paws into the arm.
# The number of rats processed per day was about 20 in this model. Therefore, the experiment was split in several series.
# Analysis of variance (ANOVA) was performed on the result data. Fisher's PLSD was used for
# pairwise comparisons and p value <0.05 was considered significant.
# rats = assay: Elevated plus-maze test in the rat (Example 1); details: for significance of effect on number of entries, % of entries and time spent in the open arms as compared with vehicle control: Dexmedetomidine 10 μg/kg i.p. (increase), Fluoxetine 32 mg/kg i.p. (decrease), vs Group 1; for anxiolytic-like / anxiogenic-like activity in the Elevated Plus Maze Test (conclusion in words): rat, Dexmedetomidine 10 μg/kg i.p., alone or co-administered
# Experimental: The test, reference, comparison or vehicle formulations were administered as a single intraperitoneal dose (i.p.).
# Under standard artificial lighting (˜200 Lux), there was a contrast between the closed (obscure and safe) arms and the open (brightly illuminated and anxiogenic) arms of the maze.
# The day preceding the experiment, rats were randomized based on their body weight.
# The maze consisted of 4 arms of equal length and width (50×10 cm) arranged in the form of a plus sign (+). Two opposite arms were enclosed by 40 cm high walls (closed arms). The 2 other arms had no walls (open arms). The maze was raised approximately 65 cm above the floor. A rat was placed in the centre of the plus-maze and left to explore for 5 minutes.
# The test was video-recorded and the number of entries into the open and closed arms and the time spent on the open arms were measured automatically using a video tracking system (EthoVision, Noldus). The % of open arm entries (open arm entries/total arm entries×100) were calculated. The total distance travelled was also reported.
# 10 rats were studied per group. The test was performed blind over 2 days with half of animals in each group each day.
# Fluoxetine (32 mg/kg i.p.) administered 30 minutes before the test was used as comparison substance.
# Clobazam (16 mg/kg i.p.), administered 30 minutes before the test was used as reference substance.
# All animals received 2 consecutive administrations at 30 minutes before the test.
# Data (for each parameter measured) with the test substance was analysed by comparing treated groups with vehicle controls using one-way ANOVA followed by post-hoc Dunnett's tests.
# Data with the comparison reference substance (clobazam) was separately analysed by comparing each treated group with vehicle controls using unpaired Student's T-tests.
# [2] = Dexmedetomidine 10 μg/kg i.p., Fluvoxamine 3 mg/kg i.p., alone or combined (Group 7), diazepam 1 mg/kg i.p.
# [3] = FLUVO 3 mg/kg, alone or with DEX 10 μg/kg
# [4] = FLUVO 10 mg/kg, alone or with DEX 10 μg/kg
# [5] = FLUVO 3 mg/kg i.p., alone or with DEX 10 μg/kg i.p.
# [6] = FLUVO 10 mg/kg i.p., alone or with DEX 10 μg/kg i.p.
# [7] = Yohimbine 2.5 mg/kg i.p. + vehicle (Group 2) vs Group 1, p<0.0001
# [8] = DEX 10 μg/kg i.p., DIAZEPAM 1 mg/kg i.p., or YOH + vehicle, 5 min test
# [9] = DEX 10 μg/kg or diazepam 1 mg/kg i.p.
# [10] = DEX 10 μg/kg or diazepam 1 mg/kg i.p., listed as DEX
smiles,measurement,setting,value
"COCCCCC(=NOCCN)c1ccc(C(F)(F)F)cc1 [Fluvoxamine, 5-methoxy-1-[4-(trifluoromethyl)phenyl]-1-pentanone O-(2-aminoethyl) oxime]",anxiolytic-like effect in Yohimbine administered rats (conclusion in words),[1]; [2],not statistically significant
same,significance of improvement in number of entries in the open arms compared with Yohimbine-administered vehicle group,[1]; Fluvoxamine 3 mg/kg i.p. (Group 5),no significant improvement
same,significance of improvement in number of entries in the open arms compared with Yohimbine-administered vehicle group,[1]; Fluvoxamine 10 mg/kg i.p. (Group 6),no significant improvement
same,anxiolytic-like effect in Yohimbine administered rats (conclusion in words),"[1]; Fluvoxamine 10 mg/kg i.p., in terms of the time spent in the open arms",significant anxiolytic-like effect
same,"In the open arms: Percentage change compared to Yohimbine administered group, Number of entries",[1]; [3],+52%
same,"In the open arms: Percentage change compared to Yohimbine administered group, Time spent",[1]; [3],+105%
same,"In the open arms: Percentage change compared to Yohimbine administered group, Time spent","[1]; FLUVO 3 mg/kg, alone or with DEX 10 μg/kg, listed as FLUVO",+105%
same,"In the open arms: Percentage change compared to Yohimbine administered group, Number of entries",[1]; [4],+76%
same,"In the open arms: Percentage change compared to Yohimbine administered group, Time spent",[1]; [4],+232%
same,"In the open arms: Percentage change compared to Yohimbine administered group, Time spent","[1]; FLUVO 10 mg/kg, alone or with DEX 10 μg/kg, listed as FLUVO",+232%
same,Number of entries in the open arms (Mean ± SEM),[1]; [5],2.67 ± 0.22
same,Time spent in the open arms (Mean ± SEM),[1]; [5],21.39 ± 2.67
same,Number of entries in the open arms (Mean ± SEM),[1]; [6],3.08 ± 0.42
same,Time spent in the open arms (Mean ± SEM),[1]; [6],34.60 ± 5.24
"COC(=O)[C@@H]1[C@H]2C[C@H]3c4[nH]c5ccccc5c4CCN3C[C@@H]2CC[C@@H]1O [YOH, Yohimbine]",change in number of entries to the open arms as compared to vehicle (saline) treated group,[1]; [7],−63%
same,change in time spent in the open arms as compared to vehicle (saline) treated group,[1]; [7],−81%
same,Number of entries in the open arms (Mean ± SEM),[1]; [8],1.75 ± 0.25
same,Time spent in the open arms (Mean ± SEM),[1]; [8],10.42 ± 1.28
"CN1C(=O)CN=C(c2ccccc2)c2cc(Cl)ccc21 [DIAZEPAM, Diazepam]",anxiolytic-like effect in Yohimbine administered rats (conclusion in words),[1]; [2],reversed Yohimbine-induced anxiety
same,"In the open arms: Percentage change compared to Yohimbine administered group, Number of entries",[1]; [9],+262%
same,"In the open arms: Percentage change compared to Yohimbine administered group, Time spent",[1]; [9],+620%
same,Number of entries in the open arms (Mean ± SEM),[1]; [8],6.33 ± 0.28
same,Time spent in the open arms (Mean ± SEM),[1]; [8],74.98 ± 4.31
"Cc1cccc([C@H](C)c2cnc[nH]2)c1C [Dexmedetomidine, (+) 4-(S)-[1-(2,3-dimethylphenyl)ethyl]-1H-imidazole]",anxiolytic-like effect in Yohimbine administered rats (conclusion in words),[1]; [2],not statistically significant
same,"In the open arms: Percentage change compared to Yohimbine administered group, Number of entries",[1]; [9],+48%
same,"In the open arms: Percentage change compared to Yohimbine administered group, Time spent",[1]; [9],+146%
same,"In the open arms: Percentage change compared to Yohimbine administered group, Number of entries",[1]; [10],+48%
same,"In the open arms: Percentage change compared to Yohimbine administered group, Time spent",[1]; [10],+146%
same,Number of entries in the open arms (Mean ± SEM),[1]; [8],2.58 ± 0.26
same,Time spent in the open arms (Mean ± SEM),[1]; [8],25.66 ± 3.84
same,"significance of effect on number of entries, % of entries and time spent in the open arms as compared with vehicle control",rats,not significant
same,anxiolytic-like / anxiogenic-like activity in the Elevated Plus Maze Test (conclusion in words),rats; Fluoxetine 32 mg/kg i.p.,absence of anxiolytic-like activity
"CNCCC(Oc1ccc(C(F)(F)F)cc1)c1ccccc1 (stereo not drawn) [Fluoxetine, N-methyl-3-(p-trifluoromethylphenoxy)-3-phenylpropylamine]","significance of effect on number of entries, % of entries and time spent in the open arms as compared with vehicle control",rats,not significant
same,change in total distance travelled in the four arms as compared with vehicle control,"rats; Fluoxetine 32 mg/kg i.p. alone or with Dexmedetomidine 10 μg/kg, vs vehicle control (Group 1)",−65%
same,change in total number of entries in the four arms as compared with vehicle control,"rats; Fluoxetine 32 mg/kg i.p., vs vehicle control (Group 1)",−57%
same,anxiolytic-like / anxiogenic-like activity in the Elevated Plus Maze Test (conclusion in words),rats; Fluoxetine 32 mg/kg i.p.,tended to show anxiogenic like effect
